US7550469B2, “Heterocyclic amide derivatives and their use as dopamine D3 receptor ligands” (Aventis Pharmaceuticals Inc., priority 2001, dated 2009)

biological target: T1, cloned human dopamine D3 receptors (Homo sapiens, UniProt P35462); assay: [N-Methyl-3H]Spiroperidol binding to cloned human dopamine D3 receptors (Protocol 1); conditions: read-out: D3K1
T1 construct: expressed in transfected cells; membrane homogenate
Summary of the method: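 Membranes from CHO cells stably expressing cloned human D3 receptor were used for [N-methyl-3H]spiroperidol (60-90 Ci/mmol) binding. Assay buffer was 0.05 M Tris HCl pH 7.7 with 120 mM NaCl, 5 mM KCl, 2 mM CaCl2 and 1 mM MgCl2, optionally 0.1% ascorbic acid; total ligand concentration calculated from added CPM.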

T1 sequence (P35462 whole entry): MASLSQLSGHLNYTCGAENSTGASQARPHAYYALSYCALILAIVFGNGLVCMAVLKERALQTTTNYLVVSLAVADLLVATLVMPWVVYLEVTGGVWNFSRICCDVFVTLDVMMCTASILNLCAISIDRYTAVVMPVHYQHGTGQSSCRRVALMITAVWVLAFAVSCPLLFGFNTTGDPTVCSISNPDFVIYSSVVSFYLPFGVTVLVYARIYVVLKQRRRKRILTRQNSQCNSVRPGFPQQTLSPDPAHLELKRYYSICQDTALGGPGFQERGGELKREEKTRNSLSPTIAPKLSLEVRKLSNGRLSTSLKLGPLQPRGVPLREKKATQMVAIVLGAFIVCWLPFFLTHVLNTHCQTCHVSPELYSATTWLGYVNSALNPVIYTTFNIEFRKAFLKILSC

Ki [nM] | Structure (SMILES)
62 | COc1ccc(C(=O)NCC2C(CN3CCN(c4csc5cc(C(F)(F)F)ccc45)CC3)C2(C)C)cc1OC (centres unmarked) [compound 826272]
51 | CC1(C)C(CNC(=O)c2ccc(F)cc2)C1CN1CCN(c2csc3cc(C(F)(F)F)ccc23)CC1 (centres unmarked) [compound 826273]
67 | CC1(C)C(CNC(=O)c2cccc(F)c2)C1CN1CCN(c2csc3cc(C(F)(F)F)ccc23)CC1 (centres unmarked) [compound 826274]
92 | CC1(C)C(CNC(=O)c2ccccc2)C1CN1CCN(c2csc3cc(C(F)(F)F)ccc23)CC1 (centres unmarked) [compound 826275]
58 | CC1(C)C(CNC(=O)c2cccs2)C1CN1CCN(c2csc3cc(C(F)(F)F)ccc23)CC1 (centres unmarked) [compound 826276]
20.3 | CC1(C)C(CNC(=O)c2ccc3ccccc3c2)C1CN1CCN(c2csc3cc(C(F)(F)F)ccc23)CC1 (centres unmarked) [compound 826277]
87 | CC1(C)C(CNC(=O)c2cccc(C(F)(F)F)c2)C1CN1CCN(c2csc3cc(C(F)(F)F)ccc23)CC1 (centres unmarked) [compound 826278]
116 | CC1(C)C(CNC(=O)c2cccc(C#N)c2)C1CN1CCN(c2csc3cc(C(F)(F)F)ccc23)CC1 (centres unmarked) [compound 826280]
73.2 | CC1(C)C(CNC(=O)Cc2ccccc2)C1CN1CCN(c2csc3cc(C(F)(F)F)ccc23)CC1 (centres unmarked) [compound 826281]
77 | COc1ccc2[nH]c(C(=O)NC[C@@H]3CCCC[C@H]3CN3CCN(c4csc5cc(C(F)(F)F)ccc45)CC3)cc2c1 [compound 826284]
170 | O=C(NC[C@@H]1CCCC[C@H]1CN1CCN(c2csc3cc(C(F)(F)F)ccc23)CC1)c1cc2ccccc2[nH]1 [compound 826285]
72 | O=C(NCC1CCC1CN1CCN(c2csc3cc(C(F)(F)F)ccc23)CC1)c1cc2ccccc2[nH]1 (centres unmarked) [compound 826290]
37 | COc1ccc2[nH]c(C(=O)NCC3CCC3CN3CCN(c4csc5cc(C(F)(F)F)ccc45)CC3)cc2c1 (centres unmarked) [compound 826291]
200 | O=C(NCC1CCC1CN1CCN(c2csc3cc(C(F)(F)F)ccc23)CC1)c1cc2ccccc2s1 (centres unmarked) [compound 826292]
240 | O=C(Cc1ccccc1)NCC1CCC1CN1CCN(c2csc3cc(C(F)(F)F)ccc23)CC1 (centres unmarked) [compound 826293]

same assay, conditions: the 18th table; read-out: D3 Ki

Ki [nM] | Structure (SMILES)
46 | O=C(NCc1sccc1CN1CCN(c2csc3cc(F)ccc23)CC1)c1cccs1 [compound 826295]
106 | O=C(NCc1sccc1CN1CCN(c2csc3cc(F)ccc23)CC1)c1cccc(Cl)c1 [compound 826296]
31 | COc1cc(OC)cc(C(=O)NCc2sccc2CN2CCN(c3csc4cc(F)ccc34)CC2)c1 [compound 826297]
59 | O=C(NCc1sccc1CN1CCN(c2csc3cc(F)ccc23)CC1)c1ccc(OC(F)(F)F)cc1 [compound 826298]
95 | O=C(NCc1sccc1CN1CCN(c2csc3cc(F)ccc23)CC1)c1cccc2ccccc12 [compound 826299]
36 | O=C(NCc1sccc1CN1CCN(c2csc3cc(F)ccc23)CC1)c1ccc2ccccc2c1 [compound 826300]
94 | O=C(NCc1sccc1CN1CCN(c2csc3cc(F)ccc23)CC1)c1cccc(C(F)(F)F)c1 [compound 826301]
16 | COc1ccccc1C(=O)NCc1sccc1CN1CCN(c2csc3cc(F)ccc23)CC1 [compound 826302]
64 | O=C(NCc1sccc1CN1CCN(c2csc3cc(F)ccc23)CC1)c1cccc(F)c1 [compound 826303]
84 | O=C(NCc1sccc1CN1CCN(c2csc3cc(F)ccc23)CC1)c1ccc(F)cc1 [compound 826304]
30 | COc1ccc(C(=O)NCc2sccc2CN2CCN(c3csc4cc(F)ccc34)CC2)cc1OC [compound 826305]

same assay, conditions: the 19th table; read-out: D3 Ki

Ki [nM] | Structure (SMILES)
221 | O=C(Nc1ccc(CN2CCN(c3csc4cc(F)ccc34)CC2)cc1)c1ccccc1F [compound 822207]
360 | COc1cccc(C(=O)Nc2ccc(CN3CCN(c4csc5cc(F)ccc45)CC3)cc2)c1 [compound 822209]
39.5 | O=C(Nc1ccc(CN2CCN(c3csc4cc(F)ccc34)CC2)cc1)c1ccc(-c2ccccc2)cc1 [compound 822210]
162 | Cc1ccccc1C(=O)Nc1ccc(CN2CCN(c3csc4cc(F)ccc34)CC2)cc1 [compound 822212]
63 | O=C(Nc1ccc(CN2CCN(c3csc4cc(F)ccc34)CC2)cc1)c1cccs1 [compound 822213]
245 | O=C(Nc1cccc(CN2CCN(c3csc4cc(F)ccc34)CC2)c1)c1ccsc1 [compound 825654]
33 | O=C(Nc1cccc(CN2CCN(c3csc4cc(F)ccc34)CC2)c1)c1ccc2[nH]nnc2c1 [compound 825656]

Structure (SMILES) | Ki [nM]
COc1ccc(C(=O)Nc2ccc(CN3CCN(c4csc5cc(F)ccc45)CC3)cc2)cc1OC [compound 822208] | 183

same assay, conditions: the 20th table; read-out: D3 Ki

Ki [nM] | Structure (SMILES)
190 | COc1cc(OC)cc(C(=O)NCc2ccoc2CN2CCN(c3csc4cc(F)ccc34)CC2)c1 [compound 825837]
146 | O=C(NCc1ccoc1CN1CCN(c2csc3cc(F)ccc23)CC1)c1cccc(C(F)(F)F)c1 [compound 825841]
532 | COc1ccccc1C(=O)NCc1ccoc1CN1CCN(c2csc3cc(F)ccc23)CC1 [compound 825842]
601 | O=C(NCc1ccoc1CN1CCN(c2csc3cc(F)ccc23)CC1)c1cc2ccccc2s1 [compound 825844]
206 | O=C(NCc1ccoc1CN1CCN(c2csc3cc(F)ccc23)CC1)c1ccc(F)cc1 [compound 825845]
250 | O=C(NCc1ccoc1CN1CCN(c2csc3cc(F)ccc23)CC1)c1ccc(-c2ccccc2)cc1 [compound 825848]
237 | O=C(NCc1ccoc1CN1CCN(c2csc3cc(F)ccc23)CC1)c1cccnc1Cl [compound 825853]

same assay, conditions: the 22nd table; read-out: D3 Ki

Ki [nM] | Structure (SMILES)
174 | COc1ccccc1C(=O)NCCCCN1CCN(c2nn(C(=O)c3ccccc3OC)c3ccsc23)CC1 [compound 825145]
188 | Cc1ccccc1C(=O)NCCCCN1CCN(c2nn(C(=O)c3ccccc3C)c3ccsc23)CC1 [compound 825146]
62.7 | Cc1ccc(C(=O)NCCCCN2CCN(c3nn(C(=O)c4ccc(C)cc4)c4ccsc34)CC2)cc1 [compound 825147]
36.4 | O=C(NCCCCN1CCN(c2nn(C(=O)c3ccc(F)cc3)c3ccsc23)CC1)c1ccc(F)cc1 [compound 825148]
164 | O=C(NCCCCN1CCN(c2nn(C(=O)c3ccc(C(F)(F)F)cc3)c3ccsc23)CC1)c1ccc(C(F)(F)F)cc1 [compound 825149]
199 | O=C(NCCCCN1CCN(c2nn(C(=O)c3ccc(F)c(F)c3)c3ccsc23)CC1)c1ccc(F)c(F)c1 [compound 825150]
8.57 | O=C(NCCCCN1CCN(c2n[nH]c3ccsc23)CC1)c1ccc(-c2ccccc2)cc1 [compound 825153]
92.1 | COc1ccccc1C(=O)NCCCCN1CCN(c2n[nH]c3ccsc23)CC1 [compound 825159]
244 | Cc1ccccc1C(=O)NCCCCN1CCN(c2n[nH]c3ccsc23)CC1 [compound 825161]
114 | O=C(NCCCCN1CCN(c2n[nH]c3ccsc23)CC1)c1ccc(F)cc1 [compound 825162]
221 | O=C(NCCCCN1CCN(c2n[nH]c3ccsc23)CC1)c1ccc(F)c(F)c1 [compound 825163]
10.4 | O=C(NCCCCN1CCN(c2nn(C(=O)c3cc4ccccc4s3)c3ccsc23)CC1)c1cc2ccccc2s1 [compound 825164]
